Read-outs that look alike come from different tables or passages of the source.
Legend:
Type in all cases: cell-based
Details in all cases: 48 hours
IL-17FF = IL-17FF production by PHA-stimulated human PBMC (human IL-17F ELI-Pair)
Outline: (§1)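 Supernatant cytokine levels are read by bead-based Luminex or sandwich ELISA after 48 h culture of PHA-stimulated (2 μg/ml) human PBMC with compound. Cells are seeded at 1×10^5 per well; IC50 values derive from semilogarithmic dilution series.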

IFN-γ = IFN-γ production by PHA-stimulated human PBMC (OptEIA human IFN-g ELISA)
Outline: as §1

[1] = tested on: PBMC from healthy human donors; test: T cell proliferation assay (PHA-stimulated human PBMC, BrdU ELISA)
Outline: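 Proliferation was quantified by BrdU ELISA 48 hours after starting culture of 1×10⁵ human PBMC per well with test compound and 2 μg/ml phytohaemagglutinin. Cells came from healthy donors via Ficoll separation and were kept in RPMI1640 with 10% dialysed heat-inactivated FCS.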

[2] = PHA-stimulated human PBMC, column B, read-out: IC50 (IL-17FF)
[3] = PHA-stimulated human PBMC, column C, read-out: IC50 (IFNγ)
[4] = PHA-stimulated human PBMC, column D, read-out: IC50 (Tcell proliferation)
[5] = human PBMC, 2 μg/ml PHA, read-out: B: IC50 (IL-17FF)
[6] = human PBMC, 2 μg/ml PHA, read-out: C: IC50 (IFNγ)
[7] = human PBMC, 2 μg/ml PHA, read-out: D: IC50 (Tcell proliferation)

Structure (SMILES) | IC50 (IL-17FF; [2]) [nM] | IC50 (IFN-γ; [3]) [nM] | IC50 [1, 4] [nM] | IC50 (IL-17FF; [5]) [nM] | IC50 (IFN-γ; [6]) [nM] | IC50 [1, 7] [nM]
CCOC(=O)c1c(-c2c(F)cccc2Cl)noc1-c1cnn(-c2ccccn2)c1C(F)(F)F [IB-84, ethyl 3-(2-chloro-6-fluorophenyl)-5-(1-(pyridin-2-yl)-5-(trifluoromethyl)-1H-pyrazol-4-yl)isoxazole-4-carboxylate] | < 10 | < 10 | < 10 | – | – | –
CCOC(=O)c1c(-c2c(F)cccc2Cl)noc1-c1cnn(-c2ccccc2N)c1C(F)(F)F [IB-98, ethyl 5-(1-(2-aminophenyl)-5-(trifluoromethyl)-1H-pyrazol-4-yl)-3-(2-chloro-6-fluorophenyl)isoxazole-4-carboxylate] | 10 to 100 | 10 to 100 | 10 to 100 | – | – | –
O=C(NCc1ccccc1C(F)(F)F)c1c(-c2c(F)cccc2Cl)noc1-c1cnn(-c2ccccc2F)c1C(F)(F)F [Example I-23, 3-(2-chloro-6-fluorophenyl)-5-(1-(2-fluorophenyl)-5-(trifluoromethyl)-1H-pyrazol-4-yl)-N-(2-(trifluoromethyl)ben-zyl)isoxazole-4-carboxamide] | 1000 to 10000 | 100 to 1000 | 1000 to 10000 | – | – | –
Fc1cccc(Cl)c1-c1noc(-c2cnn(-c3ccccc3Cl)c2C(F)(F)F)c1-c1nccs1 [Example B-29, 3-(2-chloro-6-fluorophenyl)-5-(1-(2-chlorophenyl)-5-(trifluoromethyl)-1H-pyrazol-4-yl)-4-(thiazol-2-yl)isoxazole] | – | – | – | 1000 to 10000 | 100 to 1000 | 1000 to 10000
CON(C)C(=O)c1c(-c2ccccc2F)noc1-c1cnn(-c2cccc(F)c2)c1C(F)(F)F [Example I-94, 3-(2-fluorophenyl)-5-(1-(3-fluorophenyl)-5-(trifluoromethyl)-1H-pyrazol-4-yl)-N-methoxy-N-methylisoxazole-4-carboxamide] | 1000 to 10000 | 1000 to 10000 | 1000 to 10000 | – | – | –
CCOC(=O)c1c(-c2onc(-c3c(F)cccc3Cl)c2C(=O)OC)cnn1-c1cccc(Cl)c1 [Example I-10, methyl 3-(2-chloro-6-fluorophenyl)-5-(1-(3-chlorophenyl)-5-(ethoxycarbonyl)-1H-pyrazol-4-yl)isoxazole-4-carboxylate] | 100 to 1000 | 10 to 100 | 10 to 100 | – | – | –
CSC(=O)c1c(-c2c(F)cccc2Cl)noc1-c1cnn(-c2ccccc2F)c1C(F)(F)F [Example I-130, S-methyl 3-(2-chloro-6-fluorophenyl)-5-(1-(2-fluorophenyl)-5-(trifluoromethyl)-1H-pyrazol-4-yl)isoxazole-4-carbothioate] | < 10 | < 10 | < 10 | – | – | –
CCOC(=O)c1c(-c2onc(-c3c(F)cccc3Cl)c2C(=O)OC)cnn1-c1ccc(Cl)cc1Cl [Example I-6, methyl 3-(2-chloro-6-fluorophenyl)-5-(1-(2,4-dichlorophenyl)-5-(ethoxycarbonyl)-1H-pyrazol-4-yl)isoxazole-4-carboxylate] | 1000 to 10000 | 1000 to 10000 | 1000 to 10000 | – | – | –
CCOC(=O)c1c(-c2c(F)cccc2Cl)noc1-c1cnn(-c2cccc(C(N)=O)c2)c1C(F)(F)F [IB-100, ethyl 5-(1-(3-carbamoylphenyl)-5-(trifluoromethyl)-1H-pyrazol-4-yl)-3-(2-chloro-6-fluorophenyl)isoxazole-4-carboxylate] | 1000 to 10000 | 1000 to 10000 | 1000 to 10000 | – | – | –
Cc1csc(-c2c(-c3c(F)cccc3Cl)noc2-c2cnn(-c3cccc(Cl)c3)c2C(F)(F)F)n1 [Example 4] | – | – | – | < 10 | < 10 | < 10
CCOC(=O)c1c(-c2ccncc2F)noc1-c1cnn(-c2ccncc2)c1C(F)(F)F [IB-3, ethyl 3-(3-fluoropyridin-4-yl)-5-(1-(pyridin-4-yl)-5-(trifluoromethyl)-1H-pyrazol-4-yl)isoxazole-4-carboxylate] | 100 to 1000 | 10 to 100 | 100 to 1000 | – | – | –
CON(C)C(=O)c1c(-c2c(F)cccc2Cl)noc1-c1cnn(-c2ccncc2)c1C(F)(F)F [IB-59, 3-(2-chloro-6-fluorophenyl)-N-methoxy-N-methyl-5-(1-(pyridin-4-yl)-5-(trifluoromethyl)-1H-pyrazol-4-yl)isoxazole-4-carboxamide] | 1000 to 10000 | 1000 to 10000 | 1000 to 10000 | – | – | –
O=C(c1c(-c2c(F)cccc2Cl)noc1-c1cnn(-c2cccc(Cl)c2)c1C(F)(F)F)N1CCCO1 [Example I-132, (3-(2-chloro-6-fluorophenyl)-5-(1-(3-chlorophenyl)-5-(trifluoromethyl)-1H-pyrazol-4-yl)isoxazol-4-yl)(isoxazolidin-2-yl)methanone] | 10 to 100 | < 10 | 10 to 100 | – | – | –
COC(=O)c1c(-c2c(F)cccc2Cl)noc1-c1cnn(-c2cccnc2)c1C(F)(F)F [IB-67, methyl 3-(2-chloro-6-fluorophenyl)-5-(1-(pyridin-3-yl)-5-(trifluoromethyl)-1H-pyrazol-4-yl)isoxazole-4-carboxylate] | 10 to 100 | 10 to 100 | 10 to 100 | – | – | –
CCOC(=O)c1csc(-c2c(-c3c(F)cccc3Cl)noc2-c2cnn(-c3cccc(F)c3)c2C(F)(F)F)n1 [Example B-1, ethyl 2-(3-(2-chloro-6-fluorophenyl)-5-(1-(3-fluorophenyl)-5-(trifluoromethyl)-1H-pyrazol-4-yl)isoxazol-4-yl)thiazole-4-carboxylate] | – | – | – | 100 to 1000 | 100 to 1000 | 100 to 1000
Fc1cc(F)cc(-n2ncc(-c3onc(-c4c(F)cccc4Cl)c3Br)c2C(F)(F)F)c1 [IB-27, 4-bromo-3-(2-chloro-6-fluorophenyl)-5-(1-(3,5-difluorophenyl)-5-(trifluoromethyl)-1H-pyrazol-4-yl)isoxazole] | 100 to 1000 | 100 to 1000 | 100 to 1000 | – | – | –
Fc1cccc(Cl)c1-c1noc(-c2cnn(-c3ccccn3)c2C(F)(F)F)c1-c1nnco1 [Example B-25, 2-(3-(2-chloro-6-fluorophenyl)-5-(1-(pyridin-2-yl)-5-(trifluoromethyl)-1H-pyrazol-4-yl)isoxazol-4-yl)-1,3,4-oxadiazole] | – | – | – | 100 to 1000 | 10 to 100 | 10 to 100
O=C(c1c(-c2ccccc2Cl)noc1-c1cnn(-c2cccc(Cl)c2)c1C(F)(F)F)N1CCCO1 [IB-62, (3-(2-chlorophenyl)-5-(1-(3-chlorophenyl)-5-(trifluoromethyl)-1H-pyrazol-4-yl)isoxazol-4-yl)(isoxazolidin-2-yl)methanone] | 10 to 100 | 10 to 100 | 10 to 100 | – | – | –
CCOC(=O)c1c(-c2ccncc2F)noc1-c1cnn(-c2ccccc2Cl)c1C(F)(F)F [IB-13, ethyl 5-(1-(2-chlorophenyl)-5-(trifluoromethyl)-1H-pyrazol-4-yl)-3-(3-fluoropyridin-4-yl)isoxazole-4-carboxylate] | 10 to 100 | 10 to 100 | 10 to 100 | – | – | –
Cc1nnc(-c2c(-c3c(F)cccc3Cl)noc2-c2cnn(-c3cccc(Cl)c3)c2C(F)(F)F)o1 [Example B-4, 2-(3-(2-chloro-6-fluorophenyl)-5-(1-(3-chlorophenyl)-5-(trifluoromethyl)-1H-pyrazol-4-yl)isoxazol-4-yl)-5-methyl-1,3,4-oxadiazole] | – | – | – | < 10 | < 10 | < 10

— patent publication US8354436B2 (4SC Discovery GmbH, priority 2011, dated 2013)
